From patent publication US20250099420A1, “SMALL MOLECULE MODULATORS OF GPR139 COMPLEX” (University of Florida Research Foundation, Incorporated, priority 2022, published 2025)
Where two headings read alike, the source gives them in different places.

What was measured:
GPR139 = target: T1, GPR139 (Homo sapiens, UniProt Q6DWJ6); assay: GPR139 Agonist titration / agonist counterscreen assay (calcium detection, HEK-GPR139 cells); format: cell-based; set-up: expressed in transfected cells; host or cells: HEK Aequorin cells, Maxcyte transient transfection; details: GPR139 Agonist Activity; for Averaged Max % Response (±St. Dev.): activity relative to known control; for EC50: read-out: EC50
T1 sequence (Q6DWJ6 1-353): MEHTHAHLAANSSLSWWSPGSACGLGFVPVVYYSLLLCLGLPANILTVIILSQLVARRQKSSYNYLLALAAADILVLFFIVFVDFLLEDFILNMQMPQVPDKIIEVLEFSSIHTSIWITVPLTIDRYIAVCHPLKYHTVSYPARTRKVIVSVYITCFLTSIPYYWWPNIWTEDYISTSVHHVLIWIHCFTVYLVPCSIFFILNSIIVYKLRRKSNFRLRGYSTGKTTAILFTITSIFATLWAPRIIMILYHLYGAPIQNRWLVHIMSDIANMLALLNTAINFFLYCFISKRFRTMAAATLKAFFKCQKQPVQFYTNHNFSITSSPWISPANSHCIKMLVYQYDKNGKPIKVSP
Procedure: GPR activity was assessed using a calcium detection assay. […] Negative control samples were treated with DMSO. […] Intracellular calcium was measured using Calcium 5.

parental HEK cells = assay: HEK parental Agonist Counterscreen Assay (non-transfected cells); format: cell-based; details: for Averaged Max % Response (±St. Dev.): activity relative to known control
Text: The high control for the agonist counterscreen was Forskolin not acetylcholine.

[1] = values printed in E-notation without unit
[2] = Homo sapiens, HEK293, HEK Agonist Activity section of Table 4 (parental HEK counterscreen)
[3] = HEK Agonist Activity section of Table 4 (parental HEK counterscreen)
[4] = Homo sapiens, HEK293, HEK Agonist Activity, parental non-transfected HEK cells

Compound | Averaged Max % Response (±St. Dev.) (GPR139) | Lipophilic Efficiency (logD) (GPR139; based on logD) | Lipophilic Efficiency (logP) (GPR139; based on logP) | Hill Slope (GPR139; fitted dose-response curve) | Efficiency Ligand (GPR139; ligand efficiency) | EC50 (GPR139; [1]) | Lipophilic Efficiency (logD) (parental HEK cells; HEK Agonist Activity section) | Lipophilic Efficiency (logP) (parental HEK cells; HEK Agonist Activity section) | Efficiency Ligand (GPR139) | Hill Slope (GPR139) | Lipophilic Efficiency (logD) (GPR139) | Lipophilic Efficiency (logP) (GPR139) | EC50 (GPR139; HEK-GPR139 cells) | Averaged Max % Response (±St. Dev.) (parental HEK cells; HEK Agonist Activity section) | EC50 (parental HEK cells; [2]) | EC50 (parental HEK cells; [3]) | further results
O=C(NCCc1ccc(Cl)cc1)c1nnc(Cc2ccc(F)cc2)o1 [SR-01000125346] | 91.83 ± 43.39% |  |  |  |  |  | 1.73 | 1.73 | 0.34 | 1.86 | 2.95 | 2.95 | 840 nM | 18.06 ± 8.45% | > 14100 nM |  | 
Cc1cc(C)c(/C=C2/NC(=N)NC2=O)c(C)c1 [SR-01000218376] | 76.44 ± 0.80% | 3.82 | 3.82 | 0.92 | 0.59 | 60.5 nM | 1.45 | 1.45 |  |  |  |  |  | 1.93 ± 7.79% | > 14100 nM |  | 
Cc1cc(C(=O)CCC(=O)NNC(=O)c2ccc(COc3ccccc3)cc2)c(C)o1 [SR-01000069259] | 126.19 ± 25.88% | 3.74 | 3.74 |  | 0.37 | > 6.5 nM |  |  |  |  |  |  |  |  |  |  | Lipophilic Efficiency (logD) (parental HEK cells; HEK Agonist Activity): 0.40; Lipophilic Efficiency (logP) (parental HEK cells; HEK Agonist Activity): 0.40; Averaged Max % Response (±St. Dev.) (parental HEK cells; HEK Agonist Activity): 7.00 ± 9.99%; EC50 (parental HEK cells; [4]): > 14200 nM
CC(C)CN1CCNC(=O)C1CC(=O)NCCCn1ccc2ccccc21 (stereo not shown) [SR-01000176150] | 110.06 ± 19.04% | 6.35 | 6.03 | 0.64 | 0.40 | 19.2 nM |  |  |  |  |  |  |  |  |  |  | Lipophilic Efficiency (logD) (parental HEK cells; HEK Agonist Activity): 3.48; Lipophilic Efficiency (logP) (parental HEK cells; HEK Agonist Activity): 3.17; Averaged Max % Response (±St. Dev.) (parental HEK cells; HEK Agonist Activity): −3.65 ± 2.66%; EC50 (parental HEK cells; HEK Agonist Activity, parental non-transfected HEK cells): > 14100 nM
O=C(Cn1ncc2c1-c1ccccc1OC2)Nc1ccccn1 [SR-01000135048] | 109.25 ± 4.64% | 4.72 | 4.72 | 1.29 | 0.40 | 266 nM | 3.00 | 3.00 |  |  |  |  |  | 12.06 ± 16.35% | > 14100 nM |  | 
Cc1cc(NC(=O)Cn2ncc3c2-c2ccccc2OC3)no1 [SR-01000098884] | 75.62 ± 16.43% |  |  |  |  |  | 3.22 | 3.22 | 0.35 | 0.72 | 4.12 | 4.12 | 1800 nM | 0.57 ± 13.32% |  | > 14100 nM | 
O=C(CC1Nc2ccccc2NC1=O)NCC1COc2ccccc2O1 (stereo not shown) [SR-01000146516] | 88.18 ± 13.52% | 5.60 | 5.60 | 0.77 | 0.36 | 196 nM | 3.75 | 3.75 |  |  |  |  |  | −2.96 ± 7.51% | > 14100 nM |  | 
CN(C)c1ccc(NC(=O)Cn2cc(C=O)c3ccccc32)cc1 [SR-01000146281] | 89.20 ± 13.55% |  |  |  |  |  | 1.82 | 1.82 | 0.37 | 1.64 | 3.32 | 3.32 | 449 nM | 8.26 ± 4.28% |  | > 14100 nM | 
CCc1nn(CC(=O)NCc2cccc(Br)c2)c(=O)c2cc3occc3n12 [SR-01000099472] | 105.06 ± 17.21% | 5.32 | 5.32 | 0.88 | 0.39 | 26.3 nM |  |  |  |  |  |  |  |  |  |  | Lipophilic Efficiency (logD) (parental HEK cells; HEK Agonist Activity): 2.60; Lipophilic Efficiency (logP) (parental HEK cells; HEK Agonist Activity): 2.60; Averaged Max % Response (±St. Dev.) (parental HEK cells; HEK Agonist Activity): 10.79 ± 6.86%; EC50 (parental HEK cells; [4]): > 14100 nM
Cc1c(C=O)c2ccccc2n1CC(=O)NCc1ccccc1 [SR-01000269911] | 88.11 ± 5.39% |  |  |  |  |  | 2.02 | 2.02 | 0.37 | 1.69 | 3.22 | 3.22 | 898 nM | 5.27 ± 9.17% | > 14100 nM |  | 

Further lines, with some results ahead:

Averaged Max % Response (±St. Dev.) (GPR139) | Lipophilic Efficiency (logD) (GPR139; based on logD) | Lipophilic Efficiency (logP) (GPR139; based on logP) | Hill Slope (GPR139; fitted dose-response curve) | Efficiency Ligand (GPR139; ligand efficiency) | EC50 (GPR139; [1]) | Lipophilic Efficiency (logD) (parental HEK cells; HEK Agonist Activity section) | Lipophilic Efficiency (logP) (parental HEK cells; HEK Agonist Activity section) | Efficiency Ligand (GPR139) | Hill Slope (GPR139) | Lipophilic Efficiency (logD) (GPR139) | Lipophilic Efficiency (logP) (GPR139) | EC50 (GPR139; HEK-GPR139 cells) | Compound | Averaged Max % Response (±St. Dev.) (parental HEK cells; HEK Agonist Activity section) | EC50 (parental HEK cells; [2]) | EC50 (parental HEK cells; [3]) | further results
89.14 ± 2.93% | 3.38 | 3.35 | 0.85 | 0.36 | 197 nM | 1.53 | 1.50 |  |  |  |  |  | COc1ccc(CC(=O)NNC(=O)C(C)Oc2ccc(Cl)cc2Cl)cc1 (stereo not shown) [SR-01000361779] | 9.57 ± 4.06% | > 14100 nM |  | 
107.13 ± 9.94% | 2.98 | 2.98 | 0.51 | 0.26 | 56.5 nM | 0.56 | 0.56 |  |  |  |  |  | CSc1cccc(NC(=O)C2C3C=CC4(O3)C2C(=O)N(C(C)c2ccccc2)C4C(=O)NC2CCCCC2)c1 (stereo not shown) [SR-01000546462] | 0.58 ± 3.78% |  | > 15100 nM | 
186.79 ± 37.86% | 2.75 | 2.75 |  | 0.39 | > 174 nM | 0.84 | 0.84 |  |  |  |  |  | Cc1ccc(SCC(=O)Nc2nnc(-c3ccc(Cl)cc3)o2)cc1 [SR-01000913573] | 8.58 ± 4.44% |  | > 14100 nM | 
74.00 ± 9.00% |  |  |  |  |  | 1.61 | 1.61 | 0.31 | 1.67 | 2.98 | 2.98 | 604 nM | CCCN1C(=O)CCc2cc(NC(=O)NCCc3ccc(OC)cc3)ccc21 [SR-01000923206] | −32.47 ± 4.02% |  | > 14100 nM | 
101.45 ± 17.20% | 3.15 | 3.15 | 1.07 | 0.33 | 138 nM | 1.14 | 1.14 |  |  |  |  |  | O=C(COc1ccc2ccccc2c1)NNC(=O)Cc1cccc2ccccc12 [SR-01000316766] | −0.94 ± 3.21% | > 14100 nM |  | 
146.26 ± 17.42% | 4.56 | 4.52 | 0.21 | 0.40 |  |  |  |  |  |  |  |  | COc1cc(OC)cc(C(=O)NNC(=O)C(C)Oc2ccc(Cl)cc2Cl)c1 (stereo not shown) [SR-01000358013] |  |  |  | Lipophilic Efficiency (logD) (parental HEK cells; HEK Agonist Activity): 1.68; Lipophilic Efficiency (logP) (parental HEK cells; HEK Agonist Activity): 1.64; Averaged Max % Response (±St. Dev.) (parental HEK cells; HEK Agonist Activity): 22.28 ± 14.14%; EC50 (parental HEK cells; [4]): > 14100 nM
89.42 ± 11.78% |  |  |  |  |  | 3.00 | 3.00 | 0.41 | 0.70 | 4.32 | 4.32 | 672 nM | CC1=NNC(=O)C1CC(=O)N/N=C/c1c(Cl)cccc1Cl (stereo not shown) [SR-01000310664] | 28.78 ± 5.42% |  | > 14100 nM | 
90.23 ± 7.66% |  |  |  |  |  | 3.19 | 3.19 | 0.39 | 0.91 | 4.83 | 4.83 | 325 nM | Cc1cc(-c2nnc(NC(=O)CCc3ccccc3)o2)n(C)n1 [SR-01000920602] | −28.12 ± 1.91% | > 14100 nM |  | 
89.57 ± 9.18% |  |  |  |  |  | 2.07 | 2.07 | 0.30 | 0.38 | 3.52 | 3.52 | 490 nM | O=C(Cn1ccc2ccccc21)NCCCC(=O)Nc1cccc2cccnc12 [SR-01000926510] | 9.24 ± 7.87% | > 14100 nM |  | 
